Experimental data from patent US11332483B2, “Naphthoquinone containing gold carbene complexes and methods of uses thereof” (BOARD OF REGENTS, THE UNIVERSITY OF TEXAS SYSTEM, priority 2017, dated 2022).
Read-outs that look alike come from different tables or passages of the source.

How the values were obtained:
[1] = tested on: A2780 ovarian (wt-p53, platinum sensitive); assay: Cell proliferation (MTT) assay in A2780 ovarian cells; format: cell-based; settings: Table 3; error is standard error of the mean
Description: (§1) Further anti-proliferation studies were carried out with complex 1 and its naphthoquinone component 4[H][Cl] using the following cell lines: A2780 ovarian (a wt-p53 cell line sensitive to platinum treatment), 2780CP ovarian (isogenic to A2780 but expressing multi-drug resistance (MDR)), and PC-3 prostate (p53 null) (Table 3).
(§2) Cells were harvested and seeded into 96-well culture plates (Costar 07-200-90) in 100 μL of culture media. They were allowed to incubate overnight at 37° C. in the presence of 5% CO2. A549 was seeded at a density of 1000 cells/well, A2780 at 2500 cells/well, A2780CP at 3000 cells/well, and PC-3 at 2000 cells/well. The next day, appropriate serial dilutions of drug stocks in culture media were made. To each well of a 96 well plate was added 100 μL of the appropriate solution. After a total of three days, a […] aliquot of 3 mg/mL tetrazolium dye, 344,5-dimethylthiazol-2-yl)-2,5-diphenyltetrazolium bromide (Alfa Aesar L11939) was added to each well, followed by a 4 hr incubation period at 37° C. The medium was then removed, the resulting formazan was dissolved in […] DMSO and the respective absorbances were measured at 560-650 nm using a microplate reader (Molecular Devices, Sunnyvale, Calif.). Absorbance values were corrected for background and then normalized to wells containing untreated cells to allow for plate-to-plate comparisons. […]

A549 lung cancer cells = assay: Cell proliferation (MTT) assay in A549 lung cancer cells; format: cell-based, human
Description: Cells were harvested and seeded into 96-well culture plates (Costar 07-200-90) in 100 μL of culture media. They were allowed to incubate overnight at 37° C. in the presence of 5% CO2. A549 was seeded at a density of 1000 cells/well, A2780 at 2500 cells/well, A2780CP at 3000 cells/well, and PC-3 at 2000 cells/well. The next day, appropriate serial dilutions of drug stocks in culture media were made. To each well of a 96 well plate was added 100 μL of the appropriate solution. After a total of three days, a […] aliquot of 3 mg/mL tetrazolium dye, 344,5-dimethylthiazol-2-yl)-2,5-diphenyltetrazolium bromide (Alfa Aesar L11939) was added to each well, followed by a 4 hr incubation period at 37° C. The medium was then removed, the resulting formazan was dissolved in […] DMSO and the respective absorbances were measured at 560-650 nm using a microplate reader (Molecular Devices, Sunnyvale, Calif.). Absorbance values were corrected for background and then normalized to wells containing untreated cells to allow for plate-to-plate comparisons. The data are shown as mean inhibition of proliferation or growth as a percentage of control cells and are from 2-3 replicate experiments. Resulting dose response curves were subjected to linear regression analysis (Origin by OriginLab, Inc.) for determination of IC50 values.

A549 cells = settings: A549, 24 h
Description: Control cells were treated with vehicle only. At 24 h, the media was collected and the cells were washed with PBS. The PBS washing was collected and the attached cells were then subjected to 0.5× trypsin (diluted with PBS) for 2 min. All media and washings were collected, pelleted by centrifugation (3 min @ 300 g) and washed twice with cold PBS. […] After this, 100 μL of cell suspension was added to 1.5 mL centrifuge tubes, followed by 5 μL each of Annexin V-FITC and propidium iodide (PI, 50 μg/mL) solution. Control samples of unstained cells, cells stained with only Annexin V-FITC, and cells stained with only PI were also prepared. Samples were allowed to incubate in the dark for 15 min at ambient temperature. After incubation, each sample was diluted with 200 μL of Annexin V binding buffer, and the resulting 300 μL sample was added to one well of a 96-well plate. Samples were then subjected to FACS analysis using a Millipore Guava easyCyte 8 and analyzed using Guava inCyte software.

A549 cancer cells = settings: A549, 1.25 μM
Description: All cells were selectively stained for visualization of ROS accentuation (green, CM-H2DCFDA), mitochondria (red, Mitotracker Red), and nuclei (blue, Hoechst).
Cells were then incubated with 1.25 μM complex at 37° C. 4 h. Post incubation, the media was removed and cells were washed (2×) with PBS. Cells were then incubated with 1 μM CM-H2DCFDA (Lifetech C6827) in PBS at 37° C. for 15 min. The dye-PBS solution was removed and cells were washed with PBS (2×). To the cells was added a PBS solution containing 1 ug/mL Hoechst 33342 (Lifetech H1399) and 50 nM Mitotracker Red FM (Lifetech M22425) for 30 min at 37° C. After incubation, the dye-PBS solution was removed and cells were washed with PBS (2×). Cells were then imaged fluorescently on a Leica SP5 X White light laser confocal microscope. Images were taken with a 63×, NA 1.4 objective.

[2] = tested on: A549 lung cancer cell xenografts in zebrafish; settings: 0.5 μM, bright field images
Description: (§3) First, zebrafish embryos were divided into 7 groups at an average of 65 embryos per group. […] Briefly, live human lung cancer cells (A549) were labeled with CM-DiI (red) and only live cells were transplanted via injection into the perivitelline space of 30 zebrafish embryos 24 hours post fertilization (hpf) (Sittaramane et al., 2015; Veinotte et al., 2014; Xie et al., 2015). Tumor inoculated zebrafish embryos were allowed to grow for one day till 48 hpf. This allows for establishment of the cancer cells in the host zebrafish embryos.

[3] = tested on: thioredoxin reductase (TrxR) in A549 cells; assay: Lipoate reduction assay of thioredoxin reductase activity in live cells; format: cell-based, human
Description: To assess whether any or all of the present gold complexes could serve as TrxR inhibitors, standard tests involving the reduction of the oxidized form of the cell-permeable cofactor lipoate to its corresponding reduced form, dihydrolipoate, were carried out. […] [Cl] and 5 (cocktail), auranofin, and doxorubicin for 6 h. Post treatment, the live cells were monitored colorimetrically over 180 min for their ability to reduce lipoate (FIG. 5A).
Cells were harvested and seeded at a density of 10,000 cells/well A549 in 96-well culture plates. They were then incubated overnight at 37° C. and 5% CO2. The next day, appropriate serial dilutions of drug stock in culture media were performed, and 100 μL of the appropriate solution were added to each well. Cells were returned to the incubator for 6 h. Afterwards, the liquid was then removed from each well by vacuum aspiration and replaced by 100 μL of 5 mM lipoate (Tokyo Chemical Industry Co., Ltd. L0207) and 1 mM DTNB (Acros Organics 117540050) in HBSS (Life tech 14025-092). The absorbance of each well at […] was recorded immediately and once every 20 min for three h on a microplate reader (Molecular Devices, Sunnyvale, Calif.). Plates were covered with aluminum foil between readings.

PC-3 prostate (p53 null) = assay: Cell proliferation (MTT) assay in PC-3 prostate cells; format: cell-based; settings: Table 3; error is standard error of the mean
Description: as §1, §2

zebrafish embryos/larvae = tested on: zebrafish embryos/larvae
Description: as §3
The embryonic development of zebrafish embryos was monitored at 48 hpf and 72 hpf to record the number of dead embryos.

[4] = tested on: 2780CP ovarian (multi-drug resistant); assay: Cell proliferation (MTT) assay in 2780CP ovarian cells; format: cell-based; settings: Table 3; error is standard error of the mean
Description: as §1, §2

Q: Which IC50 [1] does the source give for `Cc1cc(C)c(-n2c3c([n+](-c4c(C)cc(C)cc4C)[c]2[Au-][c]2n(-c4c(C)cc(C)cc4C)c4c([n+]2-c2c(C)cc(C)cc2C)C(=O)c2ccccc2C4=O)C(=O)c2ccccc2C3=O)c(C)c1.[Cl][Ag-][Cl]` [Compound 1, [Bis(1,3-dimesityl-4,5-naphthoquino-imidazol-2-ylidene)-gold(I)] [Silver(I)dichloride]] here?
A: 26 ± 7 nM

Q: And the “Fold Difference relative to 1” value (A549 lung cancer cells; A549 IC50 relative to complex 1)?
A: 1

Q: What about the IC50 (A549 lung cancer cells; A549 lung cancer cells, MTT, 72 h, read-out: IC50) of the same compound?
A: 73 ± 16 nM

Q: What about the IC50 (A549 lung cancer cells; Table 3, error is standard error of the mean, read-out: IC50 A549 Lung) of the same compound?
A: 73 ± 16 nM

Q: What about the “induction of apoptosis (annexin-V/PI)” value (A549 cells) of the same compound?
A: induces controlled cell death via an apoptotic mechanism

Q: And the “subcellular loci of ROS accentuation” value (A549 cancer cells)?
A: ROS accentuation is arising from mitochondria

Q: And the “non-specific cell death in the developing zebrafish larvae” value [2]?
A: no non-specific cell death

Q: And the “TrxR activity by lipoate reduction, time and dose dependence” value ([3]; A549, in words)?
A: time (FIG. 12A) and dose (FIG. 12B) dependent inhibition of enzyme activity

Q: What about the “inhibition of TrxR (lipoate reduction)” value ([3]; A549, low concentrations (0.1-0.6 μM), 6 h) of the same compound?
A: inhibition of TrxR was apparent

Q: And the IC50 (PC-3 prostate (p53 null))?
A: 96 ± 17 nM

Q: And the “toxic effect relative to vehicle” value (zebrafish embryos/larvae; 0.5 μM)?
A: no observable toxic effect

Q: And the lethality (zebrafish embryos/larvae; concentrations above 1 μM)?
A: 100%

Q: And the LD50 (zebrafish embryos/larvae; zebrafish embryos/larvae)?
A: 0.75 µM

Q: What about the IC50 [4] of the same compound?
A: 54 ± 6 nM
